This passage reports inhibition results from US7511145B2 (Genelabs Technologies, Inc., priority 2003, dated 2009).

The assay deals with T1, HCV-NS5b (Hepatitis C virus genotype 1b, UniProt Q9WMX2).
T1 construct: (His)6 (C); made in house; host or cells: XL-1 cells (E. coli), IPTG-inducible plasmid, nickel-NTA purification
Briefly: HCV-NS5b enzyme assay (incorporation of radiolabeled UTP). The settings on record: for inhibition at 33 µM: enzyme inhibition at compound concentration of 33 uM; for inhibition at 100 µM: read-out: % inh@100, enzyme inhibition at compound concentration of 100 uM. It is filed as biochemical. An excerpt:
The coding sequence of NS5b protein was cloned by PCR from pFKI389luc/NS3-3′/ET as described by Lohmann, V., et al. (1999) Science 285, 110-113 using the following primers: […]
The cloned fragment was missing the C terminus 21 amino acid residues. The cloned fragment was inserted into an IPTG-inducible expression plasmid that provided an epitope tag (His)6 at the carboxy terminus of the protein.
The recombinant enzyme was expressed in XL-1 cells and after induction of expression, the protein was purified using affinity chromatography on a nickel-NTA column. Storage condition was 10 mM Tris-HCl pH 7.5, 50 mM NaCl, 0.1 mM EDTA, 1 mM DTT, 20% glycerol at −20° C.
The polymerase activity was assayed by measuring incorporation of radiolabeled UTP into a RNA product using a biotinylated, heteropolymeric template, which included a portion of the HCV genome. Typically, the assay mixture (50 μL) contained 10 mM Tris-HCl (pH 7.5), 5 mM MgCl2, 0.2 mM EDTA, 10 mM KCl, 1 unit/μL RNAsin, 1 mM DTT, 10 μM each of NTP, including [^3H]-UTP, and 10 ng/μL heteropolymeric template. Test compounds were initially dissolved in 100% DMSO and further diluted in aqueous buffer containing 5% DMSO. Typically, compounds were tested at concentrations between 1 nM and 100 μM. Reactions were started with addition of enzyme and allowed to continue at 37° C. for 2 hours. Reactions were quenched with 8 μL of 100 mM EDTA and reaction mixtures (30 μL) were transferred to streptavidin-coated scintillation proximity microtiter plates (FlashPlates) and incubated at 4° C. overnight. Incorporation of radioactivity was determined by scintillation counting.
Shown in Table IX below are the values for enzyme inhibition measured at compound concentrations of 100 and 33 uM, (% inh@[…] and % inh@33, respectively). The percent inhibition values are calculated from the differential incorporation of radioactivity compared to a control reaction without compound: % inhibition=100−[(CountsINH−CountsBKG)/CountsCTRL−CountsBKG)×100 where CountsINH is the signal of the testwell with inhibitor, CountsBKG is the background signal and CountsCTRL is the signal of a testwell without inhibitor.

On to `O=C(O)c1ccc2c(c1)nc(-c1ccc3nc(-c4ccccc4)cnc3c1)n2C1CCCCC1` [Compound 203, 1-Cyclohexyl-2-(2-phenyl-quinoxalin-6-yl)-1H-benzoimidazole-5-carboxylic acid], for which the inhibition at 33 µM was found to be 75% and the inhibition at 100 µM worked out at 97.5%.

As to `O=C(O)c1ccc2c(c1)nc(-c1ccc3nc(-c4cc(C(=O)N5CCCC5)ccc4-c4ccc(Cl)cc4)ccc3c1)n2C1CCCCC1` [Compound 204, 2-{2-[4′-Chloro-4-(pyrrolidine-1-carbonyl)-biphen-2-yl]-quinolin-6-yl}-1-cyclohexyl-1H-benzoimidazole-5-carboxylic acid], the inhibition at 33 µM was determined as 99.7% and the inhibition at 100 µM is 101%.

Take `O=C(O)c1ccc2c(c1)nc(-c1ccc3ncc(-c4ccccc4)nc3c1)n2C1CCCCC1` [Compound 205, 1-Cyclohexyl-2-(3-phenyl-quinoxalin-6-yl)-1H-benzoimidazole-5-carboxylic acid]: the inhibition at 33 µM is 84.4% and the inhibition at 100 µM stood at 99%.

As for `O=C(O)c1ccc2c(c1)nc(-c1ccc3ncc(-c4ccccc4)cc3c1)n2C1CCCCC1` [Compound 206, 1-Cyclohexyl-2-(3-phenyl-quinolin-6-yl)-1H-benzoimidazole-5-carboxylic acid], the inhibition at 33 µM amounted to 94.2% and the inhibition at 100 µM was 96.9%.

For the molecule `O=C(O)c1ccc2c(c1)nc(-c1ccc3c(c1)CCC(c1ccccc1)N3)n2C1CCCCC1` (stereo not drawn) [Compound 215, 1-Cyclohexyl-2-(2-phenyl-1,2,3,4-tetrahydro-quinolin-6-yl)-1H-benzoimidazole-5-carboxylic acid], the inhibition at 33 µM stood at 99.2% and the inhibition at 100 µM was found to be 101%.

Consider `Cc1ccc2cc(-c3nc4cc(C(=O)N[C@@H](Cc5c[nH]c6ccc(O)cc56)C(=O)O)ccc4n3C3CCCCC3)ccc2n1` [Compound 230, 2-{[1-Cyclohexyl-2-(2-methyl-quinolin-6-yl)-1H-benzoimidazole-5-carbonyl]-amino}-3-(5-hydroxy-1H-indol-3-yl)-propionic acid], for which the inhibition at 33 µM turned out to be 92.7% and the inhibition at 100 µM came to 98.2%.

As for `O=C(N[C@@H](CO)C(=O)O)c1ccc2c(c1)nc(-c1ccc3nc(-c4ccccc4)ccc3c1)n2C1CCCCC1` [Compound 231, 2-{[1-Cyclohexyl-2-(2-phenyl-quinolin-6-yl)-1H-benzoimidazole-5-carbonyl]-amino}-3-hydroxy-propionic acid], the inhibition at 33 µM was determined as 67% and the inhibition at 100 µM worked out at 97.5%.

With `NCCCC[C@H](NC(=O)c1ccc2c(c1)nc(-c1ccc3nc(-c4ccccc4)ccc3c1)n2C1CCCCC1)C(=O)O` [Compound 232, 6-Amino-2-{[1-cyclohexyl-2-(2-phenyl-quinolin-6-yl)-1H-benzoimidazole-5-carbonyl]-amino}-hexanoic acid], the inhibition at 33 µM stood at 60.5% and the inhibition at 100 µM is 80.2%.

`O=C(O)[C@@H]1CCCN1C(=O)c1ccc2c(c1)nc(-c1ccc3nc(-c4ccccc4)ccc3c1)n2C1CCCCC1` [Compound 233, 1-[1-Cyclohexyl-2-(2-phenyl-quinolin-6-yl)-1H-benzoimidazole-5-carbonyl]-pyrrolidine-2-carboxylic acid]: the inhibition at 33 µM stood at 50% and the inhibition at 100 µM was 88.2%.

With `O=C(N[C@@H](Cc1c[nH]c2ccc(O)cc12)C(=O)O)c1ccc2c(c1)nc(-c1ccc3nc(-c4ccccc4)cnc3c1)n2C1CCCCC1` [Compound 234, 2-{[1-Cyclohexyl-2-(2-phenyl-quinoxalin-6-yl)-1H-benzoimidazole-5-carbonyl]-amino}-3-(5-hydroxy-1H-indol-3-yl)-propionic acid], the inhibition at 33 µM was found to be 98.6% and the inhibition at 100 µM turned out to be 100%.

For `O=C(N[C@@H](Cc1c[nH]c2ccc(O)cc12)C(=O)O)c1ccc2c(c1)nc(-c1ccc3nc(-c4cc(C(=O)N5CCCC5)ccc4-c4ccc(Cl)cc4)ccc3c1)n2C1CCCCC1` [Compound 235, 2-[(2-{2-[4′-Chloro-4-(pyrrolidine-1-carbonyl)-biphen-2-yl]-quinolin-6-yl}-1-cyclohexyl-1H-benzoimidazole-5-carbonyl)-amino]-3-(5-hydroxy-1H-indol-3-yl)-propionic acid], the inhibition at 33 µM came to 99.1% and the inhibition at 100 µM was found to be 99.5%.

In the case of `O=C(N[C@@H](Cc1c[nH]c2ccc(O)cc12)C(=O)O)c1ccc2c(c1)nc(-c1ccc3ncc(-c4ccccc4)nc3c1)n2C1CCCCC1` [Compound 236, 2-{[1-Cyclohexyl-2-(3-phenyl-quinoxalin-6-yl)-1H-benzoimidazole-5-carbonyl]-amino}-3-(5-hydroxy-1H-indol-3-yl)-propionic acid], the inhibition at 33 µM came out at 99.2% and the inhibition at 100 µM stood at 99.2%.

Turning to `O=C(O)CC[C@H](NC(=O)c1ccc2c(c1)nc(-c1ccc3nc(-c4ccccc4)ccc3c1)n2C1CCCCC1)C(=O)O` [Compound 237, 2-{[1-Cyclohexyl-2-(2-phenyl-quinolin-6-yl)-1H-benzoimidazole-5-carbonyl]-amino}-pentanedioic acid], the inhibition at 33 µM turned out to be 79.7% and the inhibition at 100 µM amounted to 95.6%.

Take `O=C(N[C@@H](Cc1c[nH]c2ccc(O)cc12)C(=O)O)c1ccc2c(c1)nc(-c1ccc3ncc(-c4ccccc4)cc3c1)n2C1CCCCC1` [Compound 238, 2-{[1-Cyclohexyl-2-(3-phenyl-quinolin-6-yl)-1H-benzoimidazole-5-carbonyl]-amino}-3-(5-hydroxy-1H-indol-3-yl)-propionic acid]: the inhibition at 33 µM stood at 97.6% and the inhibition at 100 µM is 98.4%.

Take `O=C(O)CCNC(=O)c1ccc2c(c1)nc(-c1ccc3nc(-c4ccccc4)cnc3c1)n2C1CCCCC1` [Compound 239, 3-{[1-Cyclohexyl-2-(2-phenyl-quinoxalin-6-yl)-1H-benzoimidazole-5-carbonyl]-amino}-propionic acid]: the inhibition at 33 µM was determined as 49.1% and the inhibition at 100 µM worked out at 70.2%.

`O=C(N[C@@H](Cc1ccc(-c2ccccc2)cc1)C(=O)O)c1ccc2c(c1)nc(-c1ccc3nc(-c4ccccc4)cnc3c1)n2C1CCCCC1` [Compound 240, 3-Biphenyl-4-yl-2-{[1-cyclohexyl-2-(2-phenyl-quinoxalin-6-yl)-1H-benzoimidazole-5-carbonyl]-amino}propionic acid]: the inhibition at 33 µM was determined as 95.7% and the inhibition at 100 µM came out at 96.1%.

Turning to `O=C(N[C@@H](Cc1ccc(C(=O)c2ccccc2)cc1)C(=O)O)c1ccc2c(c1)nc(-c1ccc3nc(-c4ccccc4)cnc3c1)n2C1CCCCC1` [Compound 241, 3-(4-Benzoyl-phenyl)-2-{[1-cyclohexyl-2-(2-phenyl-quinoxalin-6-yl)-1H-benzoimidazole-5-carbonyl]-amino}-propionic acid], the inhibition at 33 µM turned out to be 98% and the inhibition at 100 µM was found to be 98.4%.

As for `O=C(N[C@@H](CC1CCCCC1)C(=O)O)c1ccc2c(c1)nc(-c1ccc3nc(-c4ccccc4)cnc3c1)n2C1CCCCC1` [Compound 242, 3-Cyclohexyl-2-{[1-cyclohexyl-2-(2-phenyl-quinoxalin-6-yl)-1H-benzoimidazole-5-carbonyl]-amino}-propionic acid], the inhibition at 33 µM stood at 97.4% and the inhibition at 100 µM was found to be 97%.

Consider `O=C(N[C@H](C(=O)O)C1CCCCC1)c1ccc2c(c1)nc(-c1ccc3nc(-c4ccccc4)cnc3c1)n2C1CCCCC1` [Compound 243, Cyclohexyl-{[1-cyclohexyl-2-(2-phenyl-quinoxalin-6-yl)-1H-benzoimidazole-5-carbonyl]-amino}-acetic acid], for which the inhibition at 33 µM was determined as 96% and the inhibition at 100 µM was 98.1%.

With `O=C(O)C[C@H](NC(=O)c1ccc2c(c1)nc(-c1ccc3nc(-c4ccccc4)cnc3c1)n2C1CCCCC1)C(=O)O` [Compound 244, 2-{[1-Cyclohexyl-2-(2-phenyl-quinoxalin-6-yl)-1H-benzoimidazole-5-carbonyl]-amino}-succinic acid], the inhibition at 33 µM turned out to be 75.7% and the inhibition at 100 µM came to 97%.

As for `O=C(O)CC[C@H](NC(=O)c1ccc2c(c1)nc(-c1ccc3nc(-c4ccccc4)cnc3c1)n2C1CCCCC1)C(=O)O` [Compound 245, 2-{[1-Cyclohexyl-2-(2-phenyl-quinoxalin-6-yl)-1H-benzoimidazole-5-carbonyl]-amino}-pentanedioic acid], the inhibition at 33 µM came out at 73.2% and the inhibition at 100 µM was found to be 97.4%.
